Measured values from patent US20200368314A1, “PEPTIDES FOR TREATMENT AND PREVENTION OF NONALCOHOLIC FATTY LIVER DISEASE” (UNIVERSITE DE STRASBOURG, priority 2017, published 2020).
“Also recorded” adds a separate entry of the source.

Tests used:
[1] = test system: FATP2 (Fatty acid transport protein 2); experiment: q-PCR expression of fatty acid transporters in adipose tissue; assay type: in vivo, mouse; details: high fat/high glucose diet male mice; 11 days post single injection; GAPDH reference gene
Description: n=4 animals per group, GAPDH was used as reference gene. There are 6 isoforms of FATP (FATP1-6 also known as SLC27A1-SLC27A6).
As PATAD subcutaneous injection relates to restoration of glucose absorption in the adipose tissue, the inventors measured the expression levels of all 6 isoforms for the FATPs (1-6) (Fatty acid transport protein 1-6) and the 4 isoforms of the FFAR (Free Fatty Acid Receptor) to assess any effect on these genes.
All peptides were initially dissolved in DMSO and then diluted in sterile saline solution at a concentration of 10 ng/μL. 2.5 μL of each peptide (stapled or scrambled) were mixed and then injected directly in the subcutaneaous adipose tissue in each mouse. […]
Total RNA was prepared from the different tissues and cells using a RiboPure™ kit (Catalog #: AM1924; Ambion) followed by a DNAse treatment with the TURBO DNA-Free™ (Catalog #: AM 1907; Ambion). RNA integrity was assessed by gel electrophoresis and RNA concentration by Eppendorf Biophotometer Plus with the Hellma® Tray Cell (Catalog #: 105.810-uvs; Hellma). […] Real-time quantitative polymerase chain reaction amplification was performed in a BioRad CFX96™ Real-Time System using the iQ™ SYBR® Green Supermix (Catalog #: 170-8886; BioRAd) and primer sets optimized for tested targets for SYBR Green-based real-time PCR for the real-time PCR. […]

[2] = test system: AST (Aspartate Aminotransferase); experiment: Plasma AST ELISA; assay type: in vivo, mouse; details: 3 months after a single subcutaneous injection, n=4
Protocol: (§1) Mean values of both AST and ALT measured by ELISA approach in plasma of mice with the indicated treatment. n=4 samples per group.
(§2) Mice presented in FIG. 1 were euthanized and their plasma and organs were sampled for analysis. […] Cryosection of the livers were then stained with Adipored and DAPI to detect the level of lipid droplets. […] Hepatic function is assessed by two liver related strong biomarkers namely (AST (Aspartate Aminotransferase) and ALT (Alanine Aminotransferase)), whose levels increase proportionately with liver damage.
(§3) Plasma samples from the indicated mice were used to determine plasma content of either AST (aspartate aminotransferase) or […] (alanine aminotransferase) both robust indicators of liver damage were measured using commercially purchased ELISA kits. These parameters were determined according to manufacturer's procedure.
SEB214Mu (96 Tests): Enzyme-linked Immunosorbent Assay Kit For Aspartate Aminotransferase (AST), Cloud Clone Corp

[3] = test system: ALT (Alanine Aminotransferase); experiment: Plasma ALT ELISA; assay type: in vivo, mouse; details: 3 months after a single subcutaneous injection, n=4
Protocol: as §1, §2, §3
SEA207Mu (96 Tests): Enzyme-linked Immunosorbent Assay Kit For Alanine Aminotransferase (ALT), Cloud Clone Corp

GLP-1 = experiment: Circulating GLP-1 enzyme immunoassay; assay type: in vivo, mouse; details: plasma; 11 days post single injection
Protocol: FIG. 4: PATAD stapled peptide sequence A reduces FATP2 expression level in the adipose tissue and increases GLP-1 circulating levels • (A)4 month-old male mice fed with a high fat/high glucose diet were used in this set of experiment.
Mice were injected with a single dose of either scramble peptide or PATAD stapled peptide sequence A. 11 days post injection, the mice were euthanized, and plasma was obtained and used for determination of circulating GLP1 from mice with the indicated treatment.
(§4) For GLP-1 measurement, a commercially available kit was used. RayBio Human/Mouse/Rat GLP-1 Enzyme Immunoassay Kit, EIA-GLP1, RayBiotech were used with the indicated procedures from the manufacturer. For the plasma albumin level determination, a commercially available kit was used.

albumin = experiment: Plasma free albumin determination; assay type: in vivo, mouse; details: 3 months after PATAD injection, N=5
Protocol: Lipids are transported bound to albumin and therefore plasma content of free albumin was measured as a readout of the effect of PATAD stapled peptide sequence A on circulating lipid profile 3 months after PATAD injection. N=5 mice per group.
A decreased circulating free albumin concentration has been observed when the mice were treated with PATAD stapled peptide sequence A indicating an increase in the levels of circulating lipids (FIG. 6).
as §4

DIO male mice = experiment: Oral glucose tolerance test, PATAD, metformin or both; details: PATAD injection, metformin daily oral gavage

Row | Molecule | FATP2 expression level in the adipose tissue [1] | circulating AST level [2] | circulating ALT level [3] | circulating GLP-1 concentration (GLP-1) | circulating free albumin concentration (albumin) | onset of the effect on the GTT (DIO male mice)
1 | VE CTM-[2-(4-pentenyl) alanine]-EK RVL A-[2-(4-pentenyl)alanine]-L DKP PFL TQL HS [PATAD stapled peptide sequence A] | decreased; also recorded: reduces | effective in reducing | effective in reducing | restored high circulating levels; also recorded: restore GLP1 circulating levels back to lean controls | decreased | –
2 | CN(C)C(=N)N=C(N)N [metformin] | – | – | – | – | – | delayed by one week
